Assay: gradient 5% acetonitrile 3 min, to 50% in 2 min, to 85% in 15 min, held 3 min, 100 µL/min
Conditions: column: Zorbax Extend-C18 2.1 x 50 mm; eluents: water / acetonitrile, 0.1% formic acid
Outline: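 Values are retention times taken from adduct peaks that software picked and an analyst inspected. The pure standards were run as mixtures of ~100 molecules on HPLC linked to a quadrupole time-of-flight mass spectrometer, in positive and negative ionization mode. A Zorbax Extend-C18 column (2.1 × 50 mm, 1.8 μm) was used at 100 μL/min with water and acetonitrile, each including 0.1% formic acid.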

Going from `COc1ccc(NC(=O)C2CCN(c3cc(N4CCCCC4)ncn3)CC2)c(OC)c1` to `CCOc1ccc(NC(=O)C2CCN(c3cc(Oc4ccc(CC)cc4)ncn3)CC2)cc1`, the RP-LC retention time rises from 694 s to 1080 s.

First: COc1cc(Cl)ccc1C(=O)N1CCC(COc2ccc(C(=O)NC(C)C)cc2)CC1
Second: CC(C)NC(=O)c1ccc(OCC2CCCN(C(=O)c3ccc(C#N)cc3)C2)cc1 (stereo not drawn)
The RP-LC retention time of the first is higher: 801 s for the first, 800 s for the second.

First: Cc1ccccc1OCc1ccc(-c2nc(C#N)c(NCCCN(C)C)o2)o1
Second: CC(C)OCCCNC(=O)CCCn1c2ccccc2c2cnn(C)c(=O)c21
The RP-LC retention time of the first is lower: 727 s for the first, 773 s for the second.

Going from `CCCNC(=O)Nc1cc2c(cc1N1CCC(C(=O)OCC)CC1)n(C)c(=O)n2C` to `CCCNC(=O)C1CCCN(c2nc3ncn(CC(=O)Nc4cc(C)ccc4C)c(=O)c3s2)C1` (stereo not drawn), the RP-LC retention time falls from 716 s to 703 s.

First: O=C(c1ccsc1)N1CC(F)(F)C[C@H]1COc1ccc2c(c1)CCC2
Second: CCCN(C)C[C@@H]1CC(F)(F)CN1C1CCN(S(=O)(=O)c2ccccc2C)CC1
The RP-LC retention time of the first is higher: 1150 s for the first, 620 s for the second.

Going from `CCCN1C(=O)C(C)(C(=O)Nc2ccc(OCC)cc2)Oc2cccnc21` (stereo not drawn) to `CCCNC(=O)c1nn(-c2ccc(OC)cc2)c(OC)cc1=O`, the RP-LC retention time falls from 966 s to 661 s.

First: CC(C(=O)N1CCN(Cc2ccccc2)CC1)N1C(=O)CCCc2ccccc21 (stereo not drawn)
Second: COCCN1C(=O)CCc2cc(NC(=O)CCc3ccccc3)ccc21
The RP-LC retention time of the first is lower: 644 s for the first, 761 s for the second.

Going from `Cc1ccccc1NC(=O)N1CCC2(CC1)NC(=O)c1ccc(F)cc1N2C` to `Cc1cccc(C2=NC3(CCN(C(=O)c4ccc5c(c4)OCO5)CC3)NC2=O)c1`, the RP-LC retention time rises from 747 s to 792 s.

Going from `O=C1Nc2ccccc2SC1C(=O)N1CCC(C(=O)N2CCn3c2nc2ccccc23)CC1` (stereo not drawn) to `Cn1ccc2cc(S(=O)(=O)N3CCC(C(=O)N4CCN(c5ccccn5)CC4)CC3)ccc21`, the RP-LC retention time falls from 688 s to 648 s.

Compared with `COCCn1cc(C(=O)Nc2ccc(F)cc2F)c2nn(-c3ccccc3)c(=O)c-2c1`, `COc1cc(NC(=O)Cn2c(=O)n(-c3ccccc3)c(=O)c3c2cc(C)n3C)cc(OC)c1` is lower in RP-LC retention time: 1010 s for the first, 804 s for the second.

Going from `Cc1c(C(=O)N2CCOCC2)cnn1-c1ccc(-c2nc(C3CC3)no2)cn1` to `O=C(c1ccncc1)N1CCC(c2noc(-c3cnccn3)n2)C1` (stereo not drawn), the RP-LC retention time falls from 778 s to 584 s.

Compared with `CC(C)c1ccc(CNC(=O)C2CCCN(c3cc(=O)n(C)c(=O)n3C)C2)cc1` (stereo not drawn), `CCCNC(=O)C1CCCN(c2ccc(SCC(=O)Nc3cccc(Cl)c3C)nn2)C1` (stereo not drawn) is lower in RP-LC retention time: 781 s for the first, 720 s for the second.

Compared with `O=C(NCC1CC1)c1c(O)c2cccnc2n(Cc2ccccc2)c1=O`, `O=C(CSc1nc2ncccc2[nH]1)Nc1ccccc1C(F)(F)F` is lower in RP-LC retention time: 1310 s for the first, 649 s for the second.

Going from `CCCc1ccc(S(=O)(=O)N2CCC(c3noc(-c4cccc(OC)c4)n3)CC2)cc1` to `CCc1nc(-c2csc(S(=O)(=O)N3CCC(C(=O)NCc4ccc(Cl)cc4)CC3)c2)no1`, the RP-LC retention time falls from 1280 s to 994 s.

Compared with `Cc1cc(C)n(-c2ccc(C(=O)NCc3ccc(C)o3)cn2)n1`, `COc1ccc(NC(=O)Cc2c(C)nn(-c3nc(C)cs3)c2C)cc1` is higher in RP-LC retention time: 848 s for the first, 873 s for the second.

Compared with `CCN1C(=O)CCC2(C(=O)Nc3ccc(C)cc3)CCCC=C12` (stereo not drawn), `CCOc1cc(=O)n2c(c1C(=O)Nc1ccc(C(N)=O)cc1)CCCC2` is lower in RP-LC retention time: 781 s for the first, 584 s for the second.

Going from `CCC(C(=O)NC1(c2nc(-c3cccnc3)no2)CCCCC1)c1ccccc1` (stereo not drawn) to `Cn1cccc1-c1noc(C2CCN(C(=O)C3(c4ccccc4)CC3)C2)n1` (stereo not drawn), the RP-LC retention time falls from 1010 s to 931 s.

Compared with `COc1ccc(C)cc1NC(=O)C1CCCN(S(=O)(=O)c2cc(-c3noc(C)n3)cs2)C1` (stereo not drawn), `Cc1nc(-c2csc(S(=O)(=O)N3CCCC(C(=O)NCCc4sccc4C)C3)c2)no1` (stereo not drawn) is lower in RP-LC retention time: 1040 s for the first, 932 s for the second.

Going from `O=C(N[C@@H]1CN(c2ncccn2)C[C@H]1CO)c1ccc2ccccc2n1` to `O=C(Cn1cc(-c2ccccc2)c2ncnc(N3CCOCC3)c21)NCc1ccc(Cl)cc1`, the RP-LC retention time rises from 654 s to 778 s.

Compared with `CCNc1nc(N2CCN(C3CCCCC3)CC2)nc2c1cnn2C`, `Cn1ncc2c3ccccc3n(CC(=O)N3CCN(C4CCCCC4)CC3)c2c1=O` is higher in RP-LC retention time: 614 s for the first, 622 s for the second.

Going from `NC(=O)Cc1csc(NC(=O)c2csc(Nc3ccc(OC(F)F)cc3)n2)n1` to `COC(=O)Nc1nc(CC(=O)NCc2ccccc2Cl)cs1`, the RP-LC retention time falls from 688 s to 667 s.

Going from `O=C1NCCCCCCN[C@H]2C[C@H](C(=O)N3CCc4ccccc4C3)C[C@@H]12` to `O=C1CCN(S(=O)(=O)c2cccc3nsnc23)CCCCCCN1`, the RP-LC retention time rises from 612 s to 724 s.

First: Cc1cccc(N2C(=O)CN(CCCc3ccccc3)[C@H]3CS(=O)(=O)C[C@H]32)c1
Second: CCCCNC(=O)C1CCCN(C(=O)Nc2ccc(NC(=O)Nc3ccccc3)cc2)C1 (stereo not drawn)
The RP-LC retention time of the first is higher: 871 s for the first, 812 s for the second.

First: Cc1cc(N2CCN(C)CC2)nc2ccc(NC(=O)NCc3ccco3)cc12
Second: CCS(=O)(=O)Nc1ccc2nc(N3CCN(c4ccc(OC)cc4)CC3)cc(C(=O)O)c2c1
The RP-LC retention time of the first is lower: 564 s for the first, 626 s for the second.

First: Clc1ccc(-c2noc(Cc3nnc(-c4ccccc4)o3)n2)cc1
Second: Cc1ccc(CNC(=O)Cn2cccc2-c2nnc(-c3ccccc3)o2)cc1
The RP-LC retention time of the first is higher: 1050 s for the first, 940 s for the second.

Compared with `CCNC(=O)N1CCN(c2ccc(-c3noc(C4CC(=O)N(c5ccc(C)c(C)c5)C4)n3)cc2)CC1` (stereo not drawn), `Cc1cnn(Cc2nc(-c3ccc(NC(=O)CC4CCCC4)cc3)oc2C)c1` is higher in RP-LC retention time: 885 s for the first, 930 s for the second.

Going from `O=C(NCc1csc(-c2cccs2)n1)C1CCN(S(=O)(=O)c2ccccc2F)CC1` to `O=C(NC1CCN(c2cc(-c3cccs3)[nH]n2)C1)c1ccc(F)cc1` (stereo not drawn), the RP-LC retention time falls from 860 s to 726 s.

Going from `COc1ccc(N2CCn3c(SCC(=O)Nc4ccccc4C(F)(F)F)nnc32)cc1` to `COc1ccc(Cl)cc1NC(=O)CSc1nnc2c3cc(-c4ccc(C)cc4)nn3ccn12`, the RP-LC retention time rises from 726 s to 1040 s.

Going from `COc1ccc(-c2nc(NC3CCCCCC3)c3ccccc3n2)cc1` to `COCCNC(=O)C1CCN(c2nc3ccc(-c4ccc(OC)cc4)nc3s2)CC1`, the RP-LC retention time falls from 934 s to 805 s.

Compared with `Cc1c(CC(=O)NCC(C)C)c(=O)n2nc(-c3ccccc3)nc2n1C`, `CC(C)CCNC(=O)Cn1ccn2nc(-c3ccccc3)c(CO)c2c1=O` is higher in RP-LC retention time: 717 s for the first, 758 s for the second.

Compared with `O=C(Nc1ccc(Br)cc1F)C1CCN(C(=O)c2cc(-c3ccncc3)n[nH]2)CC1`, `O=C(NCc1ccc(F)cc1)N1CC(n2ccnc2)C1` is lower in RP-LC retention time: 632 s for the first, 577 s for the second.

Going from `Cn1cccc1CN(Cc1cccs1)C(=O)CN1C(=O)CCC1=O` to `CSc1ccc(C2c3[nH]c4ccccc4c3CCN2C(=O)c2cccs2)cc1` (stereo not drawn), the RP-LC retention time rises from 731 s to 1220 s.

Going from `O=C(C1CC1)N1CCCC1c1nc2ccccc2s1` (stereo not drawn) to `O=C(NC1CC1)c1cn(CCC2CCCCN2C(=O)C2CC2)nn1` (stereo not drawn), the RP-LC retention time falls from 768 s to 636 s.

First: CC(C)NC(=O)N(C)Cc1ccsc1
Second: CCCS(=O)(=O)c1nc2ccc(NS(=O)(=O)c3ccc(C(C)C)cc3)cc2s1
The RP-LC retention time of the first is lower: 730 s for the first, 1050 s for the second.

First: CCCCC(=O)Nc1ccc2c(c1)nc(CN1CCN(S(C)(=O)=O)CC1)n2CC
Second: C=CCNC(=O)c1cn(CCC)nc1S(=O)(=O)N1CCN(c2ccccc2OCC)CC1
The RP-LC retention time of the first is lower: 635 s for the first, 1030 s for the second.

Compared with `O=C(CSc1cc(-n2cccn2)ncn1)Nc1cc(Cl)ccc1Cl`, `Cc1ccc(S(=O)(=O)NC(=O)NC2=NC(C)(C)N(c3ccc(Cl)c(Cl)c3)C(N)=N2)cc1` is lower in RP-LC retention time: 1090 s for the first, 733 s for the second.

Going from `O=C(COc1cc(O)c2c(=O)c3ccccc3oc2c1)c1ccc(Cl)cc1` to `COCCCNC(=O)c1ccc2c(c1)nc(C)n2-c1ccc(Br)cc1`, the RP-LC retention time falls from 1230 s to 629 s.

Compared with `Cc1cc(C(=O)N2CCC(c3cc(N)on3)CC2)c(C)o1`, `CCOC(=O)c1noc2nc(C)nc(NCC3CCN(Cc4cccc(Cl)c4)CC3)c12` is higher in RP-LC retention time: 667 s for the first, 696 s for the second.

Compared with `CCn1c(C)nnc1SCc1nc(-c2ccc(OC)c(OC)c2)oc1C`, `Cc1nn(Cc2nc(-c3ccc(NC(=O)C4CCCC4)cc3)oc2C)c(C)c1C` is higher in RP-LC retention time: 651 s for the first, 860 s for the second.

Going from `NC(=O)c1cc2cc(Br)ccc2[nH]1` to `Brc1ccc(-c2ccc(CNCC3CCNCC3)o2)cc1`, the RP-LC retention time falls from 719 s to 597 s.

Going from `CC(C)n1c(=O)sc2cc(S(=O)(=O)N3CCC(C(=O)N4CCCC4)CC3)ccc21` to `COc1ccc(Cl)cc1S(=O)(=O)N1CCCC(C(N)=O)C1` (stereo not drawn), the RP-LC retention time falls from 809 s to 689 s.

Going from `Cc1ccc(S(=O)(=O)N2CCc3nc[nH]c3C2)cc1` to `CC(C)CC(=O)Nc1ccc(-n2cnc(C(=O)N3CCN(C(C)C)CC3)c2)nc1`, the RP-LC retention time falls from 591 s to 581 s.

First: COc1cc([C@@H]2c3cc4c(c(O)c3C[C@H]3COC(=O)[C@@H]32)OCO4)cc(OC)c1OC
Second: COc1cc(C2C(C(=O)N3CCCCC3)=C(C)NC3=C2C(=O)CC(C)(C)C3)cc(OC)c1O (stereo not drawn)
The RP-LC retention time of the first is lower: 620 s for the first, 1050 s for the second.

Going from `COCc1c(C(=O)N2CC(F)(F)C[C@H]2c2nc(C)no2)noc1C` to `Cc1nn(-c2ccc(Cl)nn2)c(C)c1Cl`, the RP-LC retention time rises from 778 s to 996 s.

Reference: the METLIN SMRT retention time set (Domingo-Almenara et al. 2019)
